Consider 20 compounds from patent US8093275B2, “Oxazolone and pyrrolidinone-substituted pryidine amides as P2X3 and P2X2/3 antagonists” (Roche Palo Alto LLC, priority 2009, dated 2012).

The target in one assay is T1, rat P2X3 receptor (Rattus norvegicus, UniProt P49654).
T1 construct: expressed in transfected cells; host or cells: CHO-K1
T1 sequence (P49654 1-397): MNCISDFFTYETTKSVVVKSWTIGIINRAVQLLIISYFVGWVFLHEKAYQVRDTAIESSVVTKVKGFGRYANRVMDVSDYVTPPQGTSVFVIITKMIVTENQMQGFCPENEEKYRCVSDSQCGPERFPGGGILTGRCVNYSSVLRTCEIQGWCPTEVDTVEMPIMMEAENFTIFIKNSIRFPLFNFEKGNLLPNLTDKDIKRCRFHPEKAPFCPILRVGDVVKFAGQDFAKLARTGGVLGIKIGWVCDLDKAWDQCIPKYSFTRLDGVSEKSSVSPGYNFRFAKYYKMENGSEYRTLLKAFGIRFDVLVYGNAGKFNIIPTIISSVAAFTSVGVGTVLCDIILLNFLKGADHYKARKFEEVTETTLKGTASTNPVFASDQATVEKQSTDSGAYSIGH
In words: P2X3 FLIPR (Fluorometric Imaging Plate Reader) assay. Type of assay: cell-based. The settings on record: CHO-K1 cells transfected with rat P2X3, agonist α,β-meATP 1 μM, FLIPR calcium fluorescence; for Ki: read-out: pKi P2X3 (converted). How it is done: (§1) CHO-K1 cells were transfected with cloned rat P2X3 or human P2X2/3 receptor subunits and passaged in flasks. 18-24 hours before the FLIPR experiment, cells were released from their flasks, centrifuged, and resuspended in nutrient medium at 2.5×10^5 cells/ml. The cells were aliquoted into black-walled 96-well plates at a density of 50,000 cells/well and incubated overnight in 5% CO2 at 37° C. On the day of the experiment, cells were washed in FLIPR buffer (calcium- and magnesium-free Hank's balanced salt solution, 10 mM HEPES, 2 mM CaCl2, 2.5 mM probenecid; FB). Each well received 100 μl FB and 100 μl of the fluorescent dye Fluo-3 AM [2 μM final conc.]. After a 1 hour dye loading incubation at 37° C., the cells were washed 4 times with FB, and a final 75 μl/well FB was left in each well.
(§2) Test compounds (dissolved in DMSO at 10 mM and serially diluted with FB) or vehicle were added to each well (25 μl of a 4× solution) and allowed to equilibrate for 20 minutes at room temperature. The plates were then placed in the FLIPR and a baseline fluorescence measurement (excitation at 488 nm and emission at 510-570 nm) was obtained for 10 seconds before a 100 μl/well agonist or vehicle addition. The agonist was a 2× solution of α,β-meATP producing a final concentration of 1 μM (P2X3) or 5 μM (P2X2/3). Fluorescence was measured for an additional 2 minutes at 1 second intervals after agonist addition. A final addition of ionomycin (5 μM, final concentration) was made to each well of the FLIPR test plate to establish cell viability and maximum fluorescence of dye-bound cytosolic calcium. Peak fluorescence in response to the addition of α,β-meATP (in the absence and presence of test compounds) was measured and inhibition curves generated using nonlinear regression. PPADS, a standard P2X antagonist, was used as a positive control.

A further assay has as its target T2, human P2X2/3 receptor (Homo sapiens, UniProt P56373+Q9UBL9).
T2 construct: expressed in transfected cells; host or cells: CHO-K1
T2 sequence (Q9UBL9 1-471): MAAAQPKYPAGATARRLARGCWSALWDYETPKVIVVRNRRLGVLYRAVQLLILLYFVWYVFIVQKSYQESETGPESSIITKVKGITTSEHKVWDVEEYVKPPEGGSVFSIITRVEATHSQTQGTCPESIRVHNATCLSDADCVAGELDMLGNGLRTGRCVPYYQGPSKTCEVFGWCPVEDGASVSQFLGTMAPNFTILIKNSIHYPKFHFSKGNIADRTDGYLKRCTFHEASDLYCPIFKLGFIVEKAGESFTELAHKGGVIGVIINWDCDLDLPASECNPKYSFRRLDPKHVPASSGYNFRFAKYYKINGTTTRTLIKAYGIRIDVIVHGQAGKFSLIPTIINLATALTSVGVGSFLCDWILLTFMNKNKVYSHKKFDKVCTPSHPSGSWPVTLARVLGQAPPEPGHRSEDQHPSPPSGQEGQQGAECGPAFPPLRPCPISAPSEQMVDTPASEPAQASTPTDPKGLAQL
T2 sequence (P56373 1-397): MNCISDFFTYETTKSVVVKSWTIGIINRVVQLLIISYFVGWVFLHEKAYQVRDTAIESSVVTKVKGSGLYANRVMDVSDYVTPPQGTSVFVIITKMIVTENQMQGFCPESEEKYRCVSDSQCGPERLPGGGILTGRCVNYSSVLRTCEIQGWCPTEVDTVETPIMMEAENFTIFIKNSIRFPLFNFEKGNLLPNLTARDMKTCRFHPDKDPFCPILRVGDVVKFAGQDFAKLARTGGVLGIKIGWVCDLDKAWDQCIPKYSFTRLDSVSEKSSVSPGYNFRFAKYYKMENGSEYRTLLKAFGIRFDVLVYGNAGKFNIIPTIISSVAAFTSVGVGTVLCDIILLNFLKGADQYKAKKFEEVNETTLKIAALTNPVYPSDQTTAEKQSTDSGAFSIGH
In words: P2X2/3 FLIPR (Fluorometric Imaging Plate Reader) assay. The settings on record: CHO-K1 cells transfected with human P2X2/3; agonist α,β-meATP 5 μM; FLIPR calcium fluorescence; read-out: pKi P2X2/3 (converted). Type of assay: cell-based. How it is done: as §1, §2

With `Cc1ccc(-c2cc(C(=O)N[C@@H](C)CO)cc(N3C(=O)OCC3(C)C)c2)nc1` [Compound 25, 3-(4,4-Dimethyl-2-oxo-oxazolidin-3-yl)-N-((S)-2-hydroxy-1-methyl-ethyl)-5-(5-methyl-pyridin-2-yl)-benzamide], the Ki at rat P2X3 receptor is 28.2 nM. On to `Cc1ccc(-c2cc(C(=O)NCc3cnc(C)cn3)cc(N3C(=O)Cc4ccccc43)c2)cc1` [Compound 53, 4′-Methyl-5-(2-oxo-2,3-dihydro-indol-1-yl)-biphenyl-3-carboxylic acid (5-methyl-pyrazin-2-ylmethyl)-amide], for which the values for the Ki at rat P2X3 receptor and at human P2X2/3 receptor were 7.24 nM and 123 nM, respectively. For `CCC[C@@H]1COC(=O)N1c1cc(C(=O)NCc2cnc(C)cn2)cc(-c2ccc(C)cn2)c1` [Compound 24, N-(5-Methyl-pyrazin-2-ylmethyl)-3-(5-methyl-pyridin-2-yl)-5-((R)-2-oxo-4-propyl-oxazolidin-3-yl)-benzamide], the Ki on rat P2X3 receptor is 166 nM. `COC[C@@H](C)NC(=O)c1cc(-c2ccc(C)cn2)cc(N2C(=O)OC[C@H]2C(C)C)c1` [Compound 7, 3-((R)-4-Isopropyl-2-oxo-oxazolidin-3-yl)-N-((R)-2-methoxy-1-methyl-ethyl)-5-(5-methyl-pyridin-2-yl)-benzamide]: the Ki on rat P2X3 receptor was 5.25 nM; on human P2X2/3 receptor, 562 nM. For `Cc1ccc(-c2cc(C(=O)NC(C)c3cnccn3)cc(N3C(=O)OC[C@H]3C(C)C)c2)c(F)c1` (stereo partly drawn) [Compound 47, 2′-Fluoro-5-((R)-4-isopropyl-2-oxo-oxazolidin-3-yl)-4′-methyl-biphenyl-3-carboxylic acid (1-pyrazin-2-yl-ethyl)-amide] the same measures were 12.6 nM and 44.7 nM. For `Cc1ccc(-c2cc(C(=O)N[C@@H](C)CO)cc(N3C(=O)OC[C@H]3C(C)C)c2)c(F)c1` [Compound 46, 2′-Fluoro-5-((R)-4-isopropyl-2-oxo-oxazolidin-3-yl)-4′-methyl-biphenyl-3-carboxylic acid ((S)-2-hydroxy-1-methyl-ethyl)-amide], the values for the Ki at rat P2X3 receptor and on human P2X2/3 receptor were 2.45 nM and 93.3 nM, respectively. With `Cc1ccc(-c2cc(C(=O)NCc3cnc(C)cn3)cc(-n3c(=O)[nH]c4cncnc43)c2)nc1` [Compound 30, N-(5-Methyl-pyrazin-2-ylmethyl)-3-(5-methyl-pyridin-2-yl)-5-(8-oxo-7,8-dihydro-purin-9-yl)-benzamide], the Ki at rat P2X3 receptor is 3.16 nM; on human P2X2/3 receptor, 35.5 nM.

Regarding `Cc1ccc(-c2cc(C(=O)NCc3cnc(C)cn3)cc(N3C(=O)OCC34CC4)c2)nc1` [Compound 29, N-(5-Methyl-pyrazin-2-ylmethyl)-3-(5-methyl-pyridin-2-yl)-5-(5-oxo-6-oxa-4-aza-spiro[2.4]hept-4-yl)-benzamide], the Ki is 4.37 nM at rat P2X3 receptor and 129 nM at human P2X2/3 receptor. As for `Cc1ccc(-c2cc(C(=O)NC(C)c3cnccn3)cc(N3C(=O)OC[C@H]3C(C)C)c2)cc1` (stereo partly drawn) [Compound 39, 5-((R)-4-Isopropyl-2-oxo-oxazolidin-3-yl)-4′-methyl-biphenyl-3-carboxylic acid (1-pyrazin-2-yl-ethyl)-amide], the Ki on rat P2X3 receptor is 9.33 nM; at human P2X2/3 receptor it was 38 nM. Consider `Cc1ccc(-c2cc(C(=O)NCc3cnc(C)cn3)cc(N3C(=O)OC[C@@H]3C(C)C)c2)cc1` [Compound 44, 5-((S)-4-Isopropyl-2-oxo-oxazolidin-3-yl)-4′-methyl-biphenyl-3-carboxylic acid (5-methyl-pyrazin-2-ylmethyl)-amide], for which the Ki at rat P2X3 receptor was 1020 nM. On to `CCC[C@@H]1COC(=O)N1c1cc(C(=O)N[C@@H](C)CO)cc(-c2ccc(C)cn2)c1` [Compound 22, N-((S)-2-Hydroxy-1-methyl-ethyl)-3-(5-methyl-pyridin-2-yl)-5-((R)-2-oxo-4-propyl-oxazolidin-3-yl)-benzamide], for which, at rat P2X3 receptor, the Ki was 3800 nM. In the case of `Cc1ccc(-c2cc(C(=O)N[C@@H](C)CO)cc(N3C(=O)OC[C@@H]3C(C)C)c2)cc1` [Compound 43, 5-((S)-4-Isopropyl-2-oxo-oxazolidin-3-yl)-4′-methyl-biphenyl-3-carboxylic acid ((S)-2-hydroxy-1-methyl-ethyl)-amide], the Ki at rat P2X3 receptor was 2570 nM. Still for that read-out and setting: to `Cc1ccc(-c2cc(C(=O)NCc3cnc(C)cn3)cc(N3C(=O)OCC3(C)C)c2)nc1` [Compound 21, 3-(4,4-Dimethyl-2-oxo-oxazolidin-3-yl)-N-(5-methyl-pyrazin-2-ylmethyl)-5-(5-methyl-pyridin-2-yl)-benzamide] belongs 3.55 nM. With `COCC(C)NC(=O)c1cc(-c2ccc(C)cc2)cc(N2CCNC2=O)c1` (stereo not drawn) [Compound 35, 4′-Methyl-5-(2-oxo-imidazolidin-1-yl)-biphenyl-3-carboxylic acid (2-methoxy-1-methyl-ethyl)-amide], the “pKi P2X3” value at rat P2X3 receptor was found to be 5.28. Turning to `Cc1ccc(-c2cc(C(=O)N[C@@H](C)CO)cc(N3C(=O)CCC3C)c2)nc1` (stereo partly drawn) [Compound 26, N-((S)-2-Hydroxy-1-methyl-ethyl)-3-(2-methyl-5-oxo-pyrrolidin-1-yl)-5-(5-methyl-pyridin-2-yl)-benzamide], at rat P2X3 receptor, the Ki is 912 nM. In the case of `COCC(C)NC(=O)c1cc(-c2ccc(C)cc2)cc(N2C(=O)CCC2C)c1` (stereo not drawn) [Compound 36, 4′-Methyl-5-(2-methyl-5-oxo-pyrrolidin-1-yl)-biphenyl-3-carboxylic acid (2-methoxy-1-methyl-ethyl)-amide], on rat P2X3 receptor, the Ki was 575 nM.

Take `Cc1ccc(-c2cc(C(=O)NC(C)c3cnccn3)cc(N3C(=O)OC[C@H]3C)c2)nc1` (stereo partly drawn) [Compound 15, 3-((R)-4-Methyl-2-oxo-oxazolidin-3-yl)-5-(5-methyl-pyridin-2-yl)-N-(1-pyrazin-2-yl-ethyl)-benzamide]: the Ki at rat P2X3 receptor is 1000 nM. Regarding `Cc1ccc(-c2cc(C(=O)NC3CC3)cc(N3C(=O)OC[C@@H]3C(C)C)c2)cc1` [Compound 42, 5-((S)-4-Isopropyl-2-oxo-oxazolidin-3-yl)-4′-methyl-biphenyl-3-carboxylic acid cyclopropylamide], at rat P2X3 receptor, the Ki was 1480 nM. As for `CCC[C@@H]1COC(=O)N1c1cc(C(=O)NC(C)c2cnccn2)cc(-c2ccc(C)cn2)c1` (stereo partly drawn) [Compound 23, 3-(5-Methyl-pyridin-2-yl)-5-((R)-2-oxo-4-propyl-oxazolidin-3-yl)-N-(1-pyrazin-2-yl-ethyl)-benzamide], the Ki at rat P2X3 receptor was 85.1 nM. On to `COCC(C)NC(=O)c1cc(-c2ccc(C)cc2)cc(N2CCNC2=O)c1` (stereo not drawn) [Compound 52, 4′-Methyl-5-(2-oxo-imidazolidin-1-yl)-biphenyl-3-carboxylic acid (2-methoxy-1-methyl-ethyl)-amide], for which the Ki at rat P2X3 receptor was 5250 nM.
